According to PubChem BioAssay (NCI):
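Values below derive from 48-hour exposures of cells grown in 96-well plates, with endpoints linearly interpolated between the two concentrations bracketing the appropriate inhibition level. TGI is the concentration that stops growth completely.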

What was measured:
Experiment in all cases: NCI-60 cell line screen, 48 h
786-0 renal = tested on: 786-0 renal
A498 renal = tested on: A498 renal
A549 NSCLC = tested on: A549 NSCLC
ACHN renal = tested on: ACHN renal
BT-549 breast = tested on: BT-549 breast
CAKI-1 renal = tested on: CAKI-1 renal
CCRF-CEM leukemia = tested on: CCRF-CEM leukemia
COLO 205 colon = tested on: COLO 205 colon
DU-145 prostate = tested on: DU-145 prostate
HCC-2998 colon = tested on: HCC-2998 colon
HCT-116 colon = tested on: HCT-116 colon
HCT-15 colon = tested on: HCT-15 colon
HL-60(TB) leukemia = tested on: HL-60(TB) leukemia
HOP-62 NSCLC = tested on: HOP-62 NSCLC
HS 578T breast = tested on: HS 578T breast
HT29 colon = tested on: HT29 colon
IGROV1 ovarian = tested on: IGROV1 ovarian
K-562 leukemia = tested on: K-562 leukemia
KM12 colon = tested on: KM12 colon
M14 melanoma = tested on: M14 melanoma
MALME-3M melanoma = tested on: MALME-3M melanoma
MCF7 breast = tested on: MCF7 breast
MDA-MB-231 breast = tested on: MDA-MB-231 breast
MDA-MB-435 = tested on: MDA-MB-435
MDA-N = tested on: MDA-N
MOLT-4 leukemia = tested on: MOLT-4 leukemia
NCI-H226 lung = tested on: NCI-H226 lung
NCI-H23 lung = tested on: NCI-H23 lung
NCI-H460 lung = tested on: NCI-H460 lung
NCI-H522 lung = tested on: NCI-H522 lung
NCI/ADR-RES ovarian = tested on: NCI/ADR-RES ovarian
OVCAR-3 ovarian = tested on: OVCAR-3 ovarian
OVCAR-5 ovarian = tested on: OVCAR-5 ovarian
OVCAR-8 ovarian = tested on: OVCAR-8 ovarian
PC-3 prostate = tested on: PC-3 prostate
SF-268 CNS = tested on: SF-268 CNS
SF-295 CNS = tested on: SF-295 CNS
SF-539 CNS = tested on: SF-539 CNS
SK-MEL-2 melanoma = tested on: SK-MEL-2 melanoma
SK-MEL-28 melanoma = tested on: SK-MEL-28 melanoma
SK-MEL-5 melanoma = tested on: SK-MEL-5 melanoma
SK-OV-3 ovarian = tested on: SK-OV-3 ovarian
SN12C renal = tested on: SN12C renal
SNB-19 CNS = tested on: SNB-19 CNS
SNB-75 CNS = tested on: SNB-75 CNS
SR leukemia = tested on: SR leukemia
SW-620 colon = tested on: SW-620 colon
T-47D breast = tested on: T-47D breast
TK-10 renal = tested on: TK-10 renal
U251 CNS = tested on: U251 CNS
UACC-257 melanoma = tested on: UACC-257 melanoma
UACC-62 melanoma = tested on: UACC-62 melanoma
UO-31 renal = tested on: UO-31 renal
HOP-92 NSCLC = tested on: HOP-92 NSCLC
LOX IMVI melanoma = tested on: LOX IMVI melanoma
OVCAR-4 ovarian = tested on: OVCAR-4 ovarian
RPMI-8226 leukemia = tested on: RPMI-8226 leukemia
RXF 393 renal = tested on: RXF 393 renal

CN(C)CCCNC(=O)N/N=C/c1ccc([N+](=O)[O-])cc1
TGI (786-0 renal): > 100 µM
TGI (A498 renal): > 100 µM
TGI (A549 NSCLC): > 100 µM
TGI (ACHN renal): > 100 µM
TGI (BT-549 breast): > 100 µM
TGI (CAKI-1 renal): > 100 µM
TGI (CCRF-CEM leukemia): > 100 µM
TGI (COLO 205 colon): > 100 µM
TGI (DU-145 prostate): > 100 µM
TGI (HCC-2998 colon): > 100 µM
TGI (HCT-116 colon): > 100 µM
TGI (HCT-15 colon): > 100 µM
TGI (HL-60(TB) leukemia): > 100 µM
TGI (HOP-62 NSCLC): > 100 µM
TGI (HS 578T breast): > 100 µM
TGI (HT29 colon): > 100 µM
TGI (IGROV1 ovarian): > 100 µM
TGI (K-562 leukemia): > 100 µM
TGI (KM12 colon): > 100 µM
TGI (M14 melanoma): > 100 µM
TGI (MALME-3M melanoma): > 100 µM
TGI (MCF7 breast): > 100 µM
TGI (MDA-MB-231 breast): > 100 µM
TGI (MDA-MB-435): > 100 µM
TGI (MDA-N): > 100 µM
TGI (MOLT-4 leukemia): > 100 µM
TGI (NCI-H226 lung): > 100 µM
TGI (NCI-H23 lung): > 100 µM
TGI (NCI-H460 lung): > 100 µM
TGI (NCI-H522 lung): > 100 µM
TGI (NCI/ADR-RES ovarian): > 100 µM
TGI (OVCAR-3 ovarian): > 100 µM
TGI (OVCAR-5 ovarian): > 100 µM
TGI (OVCAR-8 ovarian): > 100 µM
TGI (PC-3 prostate): > 100 µM
TGI (SF-268 CNS): > 100 µM
TGI (SF-295 CNS): > 100 µM
TGI (SF-539 CNS): > 100 µM
TGI (SK-MEL-2 melanoma): > 100 µM
TGI (SK-MEL-28 melanoma): > 100 µM
TGI (SK-MEL-5 melanoma): > 100 µM
TGI (SK-OV-3 ovarian): > 100 µM
TGI (SN12C renal): > 100 µM
TGI (SNB-19 CNS): > 100 µM
TGI (SNB-75 CNS): > 100 µM
TGI (SR leukemia): > 100 µM
TGI (SW-620 colon): > 100 µM
TGI (T-47D breast): > 100 µM
TGI (TK-10 renal): > 100 µM
TGI (U251 CNS): > 100 µM
TGI (UACC-257 melanoma): > 100 µM
TGI (UACC-62 melanoma): > 100 µM
TGI (UO-31 renal): > 100 µM

CC(=O)OC1CC2(C)C(OC(C)=O)CC1C2(C)C (stereo not given)
TGI (786-0 renal): > 100 µM
TGI (A549 NSCLC): > 100 µM
TGI (ACHN renal): > 100 µM
TGI (BT-549 breast): > 100 µM
TGI (CCRF-CEM leukemia): > 100 µM
TGI (COLO 205 colon): > 100 µM
TGI (DU-145 prostate): > 100 µM
TGI (HCC-2998 colon): > 100 µM
TGI (HCT-116 colon): > 100 µM
TGI (HCT-15 colon): > 100 µM
TGI (HL-60(TB) leukemia): > 100 µM
TGI (HOP-62 NSCLC): > 100 µM
TGI (HOP-92 NSCLC): > 100 µM
TGI (HS 578T breast): > 100 µM
TGI (HT29 colon): > 100 µM
TGI (IGROV1 ovarian): > 100 µM
TGI (K-562 leukemia): > 100 µM
TGI (KM12 colon): > 100 µM
TGI (LOX IMVI melanoma): > 100 µM
TGI (M14 melanoma): > 100 µM
TGI (MALME-3M melanoma): > 100 µM
TGI (MCF7 breast): > 100 µM
TGI (MDA-MB-231 breast): > 100 µM
TGI (MDA-MB-435): > 100 µM
TGI (MDA-N): > 100 µM
TGI (MOLT-4 leukemia): > 100 µM
TGI (NCI-H226 lung): > 100 µM
TGI (NCI-H23 lung): > 100 µM
TGI (NCI-H460 lung): > 100 µM
TGI (NCI-H522 lung): > 100 µM
TGI (NCI/ADR-RES ovarian): > 100 µM
TGI (OVCAR-3 ovarian): > 100 µM
TGI (OVCAR-4 ovarian): > 100 µM
TGI (OVCAR-5 ovarian): > 100 µM
TGI (OVCAR-8 ovarian): > 100 µM
TGI (PC-3 prostate): > 100 µM
TGI (RPMI-8226 leukemia): > 100 µM
TGI (RXF 393 renal): > 100 µM
TGI (SF-268 CNS): > 100 µM
TGI (SF-295 CNS): > 100 µM
TGI (SF-539 CNS): > 100 µM
TGI (SK-MEL-28 melanoma): > 100 µM
TGI (SK-MEL-5 melanoma): > 100 µM
TGI (SK-OV-3 ovarian): > 100 µM
TGI (SN12C renal): > 100 µM
TGI (SNB-19 CNS): > 100 µM
TGI (SNB-75 CNS): > 100 µM
TGI (SR leukemia): > 100 µM
TGI (SW-620 colon): > 100 µM
TGI (T-47D breast): > 100 µM
TGI (TK-10 renal): > 100 µM
TGI (U251 CNS): > 100 µM
TGI (UACC-257 melanoma): > 100 µM
TGI (UACC-62 melanoma): > 100 µM
TGI (UO-31 renal): > 100 µM

COc1cc(C[C@@H](C)N)cc(OC)c1
TGI (786-0 renal): > 100 µM
TGI (A498 renal): > 100 µM
TGI (A549 NSCLC): > 100 µM
TGI (ACHN renal): > 100 µM
TGI (BT-549 breast): > 100 µM
TGI (CAKI-1 renal): > 100 µM
TGI (CCRF-CEM leukemia): > 100 µM
TGI (COLO 205 colon): > 100 µM
TGI (DU-145 prostate): > 100 µM
TGI (HCC-2998 colon): > 100 µM
TGI (HCT-116 colon): > 100 µM
TGI (HCT-15 colon): > 100 µM
TGI (HL-60(TB) leukemia): > 100 µM
TGI (HOP-62 NSCLC): > 100 µM
TGI (HS 578T breast): > 100 µM
TGI (HT29 colon): > 100 µM
TGI (IGROV1 ovarian): > 100 µM
TGI (K-562 leukemia): > 100 µM
TGI (KM12 colon): > 100 µM
TGI (LOX IMVI melanoma): > 100 µM
TGI (M14 melanoma): > 100 µM
TGI (MALME-3M melanoma): > 100 µM
TGI (MCF7 breast): > 100 µM
TGI (MDA-MB-231 breast): > 100 µM
TGI (MDA-MB-435): > 100 µM
TGI (MDA-N): > 100 µM
TGI (MOLT-4 leukemia): > 100 µM
TGI (NCI-H226 lung): > 100 µM
TGI (NCI-H23 lung): > 100 µM
TGI (NCI-H460 lung): > 100 µM
TGI (NCI-H522 lung): > 100 µM
TGI (NCI/ADR-RES ovarian): > 100 µM
TGI (OVCAR-3 ovarian): > 100 µM
TGI (OVCAR-4 ovarian): > 100 µM
TGI (OVCAR-5 ovarian): > 100 µM
TGI (OVCAR-8 ovarian): > 100 µM
TGI (PC-3 prostate): > 100 µM
TGI (RPMI-8226 leukemia): > 100 µM
TGI (RXF 393 renal): > 100 µM
TGI (SF-268 CNS): > 100 µM
TGI (SF-295 CNS): > 100 µM
TGI (SF-539 CNS): > 100 µM
TGI (SK-MEL-2 melanoma): > 100 µM
TGI (SK-MEL-28 melanoma): > 100 µM
TGI (SK-MEL-5 melanoma): > 100 µM
TGI (SK-OV-3 ovarian): > 100 µM
TGI (SN12C renal): > 100 µM
TGI (SNB-19 CNS): > 100 µM
TGI (SNB-75 CNS): 98.4 µM
TGI (SR leukemia): > 100 µM
TGI (SW-620 colon): > 100 µM
TGI (T-47D breast): > 100 µM
TGI (TK-10 renal): > 100 µM
TGI (U251 CNS): > 100 µM
TGI (UACC-257 melanoma): > 100 µM
TGI (UACC-62 melanoma): > 100 µM
TGI (UO-31 renal): > 100 µM
